US6331555A, “Treatment of platelet derived growth factor related disorders such as cancers” (priority 1999, dated 2001)
pIC50: −log10 of the molar value.

Legend:
spleen cells = experiment: Normal immune function in naive mice; assay type: in vivo, mouse
Description: At the indicated times, animals were sacrificed, and the spleens were aseptically removed and placed into sterile medium. Spleens were processed into single cell suspensions by grinding between sterile frosted glass microscope slides. After a single wash to remove tissue debris, the spleen cells were resuspended in a hypotonic ammonium chloride buffer to lyse erythrocytes. Lymphocytes were washed and resuspended to the appropriate concentrations in complete medium, consisting of RPMI plus 10% heat-inactivated FBS, 2 mM glutamine, 50 μM β-mercaptoethanol, and penicillin-streptomycin. The responses of the lymphocytes were examined in the following assays according to accepted procedures (Current Protocols in Immunology. Coligan, J. E., Kruisbeek, A. M., Margulies, D. H., Shevach, E. M., Strober, W. (eds.) John Wiley and Sons, Inc., 1992).
The T-cell mitogen, ConA, and the T-cell independent B-cell mitogen, LPS, were added to 96-well round-bottom wells at the indicated concentrations. Lymphocytes from normal, vehicle-dosed, and drug-dosed animals were added at a final concentration of 2.5×10^5 /well. Cultures were usually set up in triplicate or quadruplicate. The plates were incubated at 37° C. in a humidified atmosphere containing 5% CO2 for the indicated times. Supernatants (approximately 100 μL) were carefully removed from the wells and stored at -80° C. for lymphokine and immunoglobulin analyses. To measure proliferation of the lymphocytes, 1 μCi of ^3 H-thymidine was added to each well, and the plates were incubated for 6 hr. The cultures were harvested onto glass fiber filters, and the incorporated radioactivity was quantitated by liquid scintillation counting (Betaplate, Wallac).
Lymphocytes from normal, vehicle-dosed, and drug-dosed animals were plated at 2.5×10^5 /well in round-bottom 96-well plates. Stimulator cells were then added at the same cell concentration. The stimulator cells consisted of syngeneic or allogeneic lymphocytes which had been treated with 50 μg/mL of mitomycin C for 30 min prior to the assay. The plates were incubated for 3 to 4 days, at which time supernatants were harvested and the cultures were pulsed as described for the mitogen assays.
Supernatants from mitogen and MLR cultures were assayed for IL-2 and IL-6 content by the ability to support the growth of factor-dependent cell lines. HT-2 cells (10^4 /well, IL-2-dependent) and 7TD1 cells (2×10^3 /well, IL-6-dependent) were plated in 96-well flat-bottom plates, in 50 μL/well. Supernatants were added in 50 μL/well, and the plates were incubated overnight (HT-2) or four days (7TD1). Cellular proliferation was determined in the MTT colorimetric assay (Appendix 3.1).
Flat bottom 96-well EIA plates were coated with goat anti-mouse Ig antibodies (Southern Biotechnology) overnight at 4° C. The plates were blocked by the addition of PBS+1% BSA. After washing with PBS, supernatants from murine mitogen and MLR cultures were added and incubated at room temperature for 1 hr. The plates were washed with PBS, then HRP-labeled goat anti-mouse Ig antibodies were added and incubated at room temperature for 1 hr. The plates were washed and developed by the addition of substrate (ABTS).
The animals were sacrificed and their spleen cells were assayed in vitro for responses to ConA (a T-cell mitogen), LPS (a T-cell independent B-cell mitogen), and alloantigens (C3H/HeJ spleen cells) as described in Appendix 5. The IL-2, IL-6, Ig content and cellular proliferation were measured after 48 hr (mitogens) or 72 hr (alloantigens).

[1] = test system: NIH3T3 cells overexpressing the human PDGF-b receptor; experiment: PDGF-stimulated cell cycle progression, flow cytometry; assay type: cell-based, mouse
Description: NIH3T3 mouse fibroblasts overexpressing the human PDGF-β receptor were seeded in DMEM supplemented with 10% CS and 2 mM GLN. Cells were grown to about 80% confluence and then treated overnight in serum-free medium (DMEM, 2 mM GLN, 2 mM NEAA, 2 mM NaPyr, and 2 mM HEPES). […] Cells were then collected, strained and analyzed by flow cytometry for DNA content.
The percentage of cells in the S phase of the cell cycle was determined by flow cytometry.
The cells were analyzed for DNA content by flow cytometry.

[2] = test system: glioblastoma multiformae (GBM) primary tumor cells; experiment: Growth of primary tumor cells from glioblastoma patients; assay type: cell-based, human
Description: Viable tumors were placed into medium by the pathologist at the referring institution immediately after surgery, and shipped to Oncotech by overnight delivery. As soon as a tumor was received, a portion was fixed in formalin for sectioning and the remainder trimmed of necrotic, connective and adipose tissues. All tumor manipulations were performed aseptically. The remaining tumor was placed into a Petri dish containing 5 mL of medium (RPMI 1640 supplemented with 10% FBS, 100 IU/mL penicillin, […] streptomycin and L-glutamine) and disaggregated mechanically with scissors into pieces 2 mm or smaller. […]
After enzymatic dispersion into a near single-cell suspension, tumor cells were filtered through nylon mesh, washed in medium, suspended in soft agarose (0.12%) and plated at approximately 20,000 cells per well onto an agarose underlayer (0.4%) in 24-well plates. […] After the appropriate labeling period, tissue culture plates were heated at 60° C. to melt the agarose, the cells harvested with a micro-harvester onto glass fiber filters and the radioactivity determined. Percent inhibition (PCI) was determined using the formula: PCI=1-(CPM treatment group […] CPM control group). Determinations of control group proliferation were performed in quadruplicate, while treatment group proliferation was determined in triplicate. […]

Cc1oncc1C(=O)Nc1ccc(C(F)(F)F)cc1 [Compound A10, 5-methylisoxazole-4 carboxylic acid-(4-trifluromethyl)-anilide]
3H-thymidine uptake (spleen cells; Allo, d7, vs vehicle): 0 | IL-2 production (spleen cells; Allo, d7, vs vehicle): 0 | IL-6 production (spleen cells; Allo, d7, vs vehicle): 0 | Ig production (spleen cells; Allo, d7, vs vehicle): 0 | 3H-thymidine uptake (spleen cells; Allo, d21, vs vehicle): 0 | IL-2 production (spleen cells; Allo, d21, vs vehicle): 0 | IL-6 production (spleen cells; Allo, d21, vs vehicle): 0 | Ig production (spleen cells; Allo, d21, vs vehicle): 0 | 3H-thymidine uptake (spleen cells; ConA, d7, vs vehicle): 0 | IL-2 production (spleen cells; ConA, d7, vs vehicle): 0 | IL-6 production (spleen cells; ConA, d7, vs vehicle): ++ | Ig production (spleen cells; ConA, d7, vs vehicle): 0 | 3H-thymidine uptake (spleen cells; ConA, d21, vs vehicle): 0 | IL-2 production (spleen cells; ConA, d21, vs vehicle): 0 | IL-6 production (spleen cells; ConA, d21, vs vehicle): 0 | Ig production (spleen cells; ConA, d21, vs vehicle): 0 | 3H-thymidine uptake (spleen cells; LPS, d7, vs vehicle): 0 | IL-2 production (spleen cells; LPS, d7, vs vehicle): 0 | IL-6 production (spleen cells; LPS, d7, vs vehicle): 0 | Ig production (spleen cells; LPS, d7, vs vehicle): + | 3H-thymidine uptake (spleen cells; LPS, d21, vs vehicle): 0 | IL-2 production (spleen cells; LPS, d21, vs vehicle): 0 | IL-6 production (spleen cells; LPS, d21, vs vehicle): 0 | Ig production (spleen cells; LPS, d21, vs vehicle): +/- | number of cells progressing to the S phase in response to PDGF [1]: dose-dependent decrease in the number of cells progressing to the S phase | tumor cell growth ([2]; 0 to 400 mM): tumor cell growth decreased for both types of tumors | pIC50 ([2]; Homo sapiens, range over six patients, read-out: IC50, GBM tumors): 3.70 to 4.41
